Tests used:
[1] = system: Human umbilical vein endothelial cells (HUVEC); assay: Measurement of cell proliferation (Cell Counting Kit-8); type: cell-based; details: HUVEC, 48 hours
Experimental: Sample solutions were prepared by dissolving 2-Cl—C.OXT-A in physiological saline so as to achieve predetermined concentrations (0.5, 1, 5, 10, 50, 100 mmol/l). Then, the sample solutions containing 2-Cl—C.OXT-A at the predetermined concentrations respectively were added to HuMedia-EB2 media (Kurabo) to which 2 v/v % inactivated fetal bovine serum (FBS) had been added so that their concentrations became 10 v/v %. Thus, cell proliferation media were prepared. The final concentrations of 2-Cl—C.OXT-A in the cell proliferation media were 50, 100, 500 μmol/l, 1, 5, and 10 mmol/1.
Human umbilical vein endothelial cells (HUVEC) suspended in a HuMedia-EG2 medium (Kurabo) were inoculated into each of gelatin-coated wells of a 96-well plate at a density of 3×10^3 cells per well, and cultured for 24 hours. 24 hours after the start of the culture, the medium was removed, and 100 μl of the cell proliferation medium was added to each well. The cells were cultured for another 48 hours. After the completion of the culture, a color reaction was caused using a Cell Counting Kit-8 (Dojindo Laboratories). 2 hours after the start of the reaction, the absorbance at 450 nm was measured using a microplate reader. As a control, a HuMedia-EB2 medium (Kurabo) to which 2 v/v % inactivated fetal bovine serum (FBS) had been added was used instead of the cell proliferation medium to carry out the culture, and a color reaction was caused and the absorbance was measured in the same manner as in the above. Then, using the following equation (I), the relative absorbance in the culture using each of the cell proliferation media containing 2-Cl—C.OXT-A at the predetermined concentrations was calculated.

[2] = system: ERK; assay: ERK activation (phosphorylation) immunoblot in HUVEC; type: cell-based, human; details: for relative value (−fold) of pERK: 100 μmol/l
Experimental: (§1) First, to a HuMedia-EB2 medium (Kurabo) to which 2 v/v % inactivated fetal bovine serum (FBS) had been added, 2-Cl—C.OXT-A was added so that its concentration became 100 μmol/l. Thus, a medium was prepared. Using the medium, human umbilical vein endothelial cells (HUVEC) were cultured for predetermined periods (0, 10, 20, 30, 45, and 60 minutes).
After the culture, cells were collected. The collected cells were lysed by adding a cell lysis buffer (SDS-lysis buffer) thereto, and heat-denatured at 95° C. for 5 minutes. The solubilized protein in an amount corresponding to 5 v/v % of the heat-denatured cell lysate was subjected to electrophoresis using 10% SDS-polyacrylamide gel, whereby the solubilized protein was transferred onto a nitrocellulose membrane (Amersham Biosciences). To 20 ml of TBS-T having the following composition, skim milk (Wako) was added so that its concentration became 5%, thus preparing a blocking solution. The resultant nitrocellulose membrane was immersed in the blocking solution and shaken at room temperature for 1 hour.
(§2) Primary antibodies shown below were diluted 1000-fold by adding them to 5% bovine serum albumin (Sigma)-containing TBS-T, thus preparing a primary antibody solution. The nitrocellulose membrane after being subjected to the blocking was immersed in the primary antibody solution, and shaken at room temperature for 1 hour. The resultant nitrocellulose membrane was immersed in the TBS-T and washed by being shaken for 10 minutes. This washing operation was carried out three times in total.
as §2, with “Secondary” for “Primary”, “20000-fold” for “1000-fold”, “to” for “to 5% bovine serum albumin (Sigma)-containing”, “secondary” for “primary”, “having undergone” for “after being subjected to”, “reaction with the primary antibodies” for “blocking”
(§3) The enzymes were visualized with SuperSignal (registered trademark) West Pico Chemiluminescent Substrate (Pierce), and detected by being exposed to RX—U X-ray film (FUJIFILM Corporation). From the detected bands, the respective phosphoenzymes and total enzymes were quantified using an NIH image software. Furthermore, the relative value (−fold) of each phosphoenzyme was calculated by substituting the measured value of the phosphoenzyme into the following equation (III).
Relative value(−fold)of phosphoenzyme=(B/D)/(A/C) (III)
In the present example, the effect of 2-Cl—C.OXT-A of Example 1 and C.OXT-G of Comparative Example 2 on the activation (phosphorylation) of ERK was examined. In the present example, the amount of each enzyme was measured and the relative value (−fold) of each phosphoenzyme was calculated in the same manner as in Example 3, except that: a medium to which 2-Cl—C.OXT-A had been added so as to achieve predetermined concentrations (0, 10 and 100 μmol/l) and a medium to which 100 μmol/l C.OXT-G had been added were used; the culture period after the addition was set to 20 minutes: as the primary antibodies, only an anti-phospho ERK polyclonal antibody (Catalog No. 9101, Cell Signaling Technology) and an anti-total ERK monoclonal antibody (Catalog No. 610408, BD Transduction Laboratory) were used; as the secondary antibody for ERK, a sheep HRP-labeled anti-mouse IgG antibody (Pierce) was used; and as a secondary antibody of pERK, a sheep HRP-labeled anti-rabbit IgG antibody (Pierce) was used.
In the present example, the effect of PD98059 as an MEK inhibitor on the ERK activation (phosphorylation) by 2-Cl—C.OXT-A used in Example 1 was examined. […]

[3] = system: Akt; assay: Akt activation (phosphorylation) immunoblot in HUVEC; type: cell-based, human; details: 100 μmol/l; 0 to 60 minutes
Experimental: as §1
(§4) After the culture, cells were collected. The collected cells were lysed by adding a cell lysis buffer (SDS-lysis buffer) thereto, and heat-denatured at 95° C. for 5 minutes. The solubilized protein in an amount corresponding to 5 v/v % of the heat-denatured cell lysate was subjected to electrophoresis using 10% SDS-polyacrylamide gel, whereby the solubilized protein was transferred onto a nitrocellulose membrane (Amersham Biosciences). […]
as §3

[4] = system: JNK; assay: JNK activation (phosphorylation) immunoblot in HUVEC; type: cell-based, human; details: 100 μmol/l; 0 to 60 minutes
Experimental: as §1, §4, §3

[5] = system: p38; assay: p38 activation (phosphorylation) immunoblot in HUVEC; type: cell-based, human; details: 100 μmol/l; 0 to 60 minutes
Experimental: as §1, §4, §3

[6] = system: cornea of Japanese white rabbit; assay: Angiogenesis test, rabbit cornea assay; type: in vivo; details: 16 mmol/l in 30 μl of physiological saline injected to cornea, observed after 7 days
Experimental: In the present example, the effect of 2-Cl—C.OXT-A of Example 1 on angiogenesis was examined by a rabbit cornea assay.
A sample was prepared by adding 2-Cl—C.OXT-A to 30 μl of physiological saline so that its concentration became 16 mmol/l. The sample was injected to a cornea of Japanese white rabbit (male, 2.8 kg) under sevoflurane anesthesia. The cornea was observed after a lapse of 7 days.

Nc1nc(Cl)nc2c1ncn2C1CC(CO)C1CO (stereo not drawn) [2-Cl—C.OXT-A, 6-amino-2-chloro-9-[trans-trans-2,3-bis(hydroxymethyl)cyclobutyl]purine]
relative absorbance (cell proliferation) ([1]; final concentration 50 μmol/l to 1 mmol/l, relative to control): higher than 1
cell proliferation ([1]; final concentration 5 mmol/l or higher): suppressed in a concentration-dependent manner
relative value (−fold) of pERK ([2]; Example 3, 20 minutes after the addition): about 11 fold
pERK, concentration dependence ([2]; Example 4, 0, 10 and 100 μmol/l, 20 minutes): increased in a manner dependent on the concentration
relative value (−fold) of pERK ([2]; Example 4, 20 minutes): about 10 fold
pERK ([2]; Example 6, medium No. 2: 2-Cl—C.OXT-A 100 μmol/l, no PD98059): increased
amount of pAkt [3]: not changed
amount of pJNK [4]: not changed
amount of pp 38 [5]: not changed
angiogenesis in the cornea [6]: considerable angiogenesis
